Here are results for one sequence from publication PMC9376946, “Peptide-RNA Coacervates as a Cradle for the Evolution of Folded Domains” (Journal of the American Chemical Society, 2022).

One test has as its system polyU. Kind of test: W-band echo intensity and echo decay of PA-12 with polyU. The test is classed as binding. As for the experimental part:
For pulse EPR measurements, 5–6 μL of peptide in D2O with 20% glycerol-d8 was introduced into a quartz capillary of 0.9 mm i.d. and 1.1 mm o.d. and sealed with Critoseal at one end. The samples with polyU (and thus, the potential for coacervates) were flash-frozen in liquid nitrogen after incubating at room temperature for 15–20 min. Samples without polyU were directly inserted into the spectrometer at 25 K.
Pulse EPR measurements were carried out at the W band (94.9 GHz) on a home-built spectrometer at 25 K.[22]−[24] Echo intensities were measured with a Hahn echo sequence (π/2νobs – τ – πνobs – τ – echo) using π/2 and π pulses of 20–25 ns and 40–50 ns, respectively, and τ = 500 ns. Echo decays were measured under the same conditions with an initial τ value of 500 ns. DEER measurements were recorded using the four-pulse DEER sequence (π/2νobs – τ1 – πνobs – (τ1 + t) – πνpump – (τ2-t) – πνobs – τ2 – echo)[25],[26] with a chirp pump pulse[23] using eight-step phase cycling and monitoring the echo intensity as a function of increasing t. […] The DEER data were analyzed using the DeerAnalysis 2018[27] program with Tikhonov regularization[28] and also verified with DEERNet.[29] […] The calculated distance distributions were obtained from mtsslSuite[30] using maleimide TEMPO (M-TEMPO) as the ligand, and 200 rotamer conformations were generated using clash treatment set to “loose”. […]

Another test deals with PA dimer (PA2). Description: DEER of singly labeled peptides in solution (dimerization). In kind it is binding.

Description for PA dimer (PA2): Lyophilized, spin-labeled peptides were dissolved in Milli-Q water and centrifuged at 4000 rpm for 10 min to remove insoluble aggregates. The soluble fractions were used to prepare stock solutions of 250–500 μM peptide. Labeled peptide concentrations were determined by comparing the area under the curve of the EPR signal against that of standard solutions of 10–285 μM TEMPO. For the EPR measurements in D2O, 200 μL of the stock solution was lyophilized and re-dissolved in D2O. The concentration of the unlabeled peptide stock solutions was determined using the bicinchoninic acid assay (Thermo Fisher Scientific) and ranged from 0.8 to 1.2 mM peptide. […]

“RIRRASVEELTCVPGIGPRLARRILERLA [PA-12, Precursor-Arg peptide in which position 12 has been modified with a cysteine and attached to an M-TEMPO spin label]” had an echo signal remaining with polyU (150 μM PA-12, 0.5 mg/mL polyU (plateau), relative to no polyU) of 8%. Also, in the test with polyU (1 mg/mL polyU, 80% spin dilution, final PA 150 μM), the fast-decaying echo component result is given as “the fast-decaying component became clearly visible”. The “DEER modulation depth (Δ)” value in the test with PA dimer (PA2) (30 μM, without polyU) was found to be 2%. Moreover, in the test on PA dimer (PA2) (about 10% spin-labeled peptide, 200 μM total PA), the “inter-monomer distances upon spin dilution” value is recorded as “inter-monomer distances practically disappear”.
